Data published in US11376231B2, “Compositions of bioactive fulvate fractions and uses thereof” (OMNI BIOCEUTICAL INNOVATIONS, INC., priority 2016, dated 2022).
Read-outs that look alike come from different tables or passages of the source. Ends that are not written are not given here.

Legend:
[1] = test system: human keratinocytes; assay: Stimulation of keratinocytes: expression of antimicrobial peptides/polypeptides (Northern blot, ELISA, immunoblot, immunostaining); assay type: cell-based; settings: for expression of the antimicrobial peptides/polypeptides hCAP-18, hBD-3, NGAL, and SLPI: human keratinocytes; for mRNA for hBD-3 (induction): not detected in unstimulated cells
Procedure: SDS-PAGE and immunoblotting were performed with Bio-Rad systems according to instructions given by the manufacturer (Bio-Rad, Hercules, Calif.). For immunoblotting, after the transfer of proteins from the 14% polyacrylamide gels, the polyvinylidene difluoride (PVDF) membranes (Millipore, Bedford, Mass.) were blocked for 1 h with 5% skimmed milk in PBS. For detection of hCAP-18, NGAL, and SLPI, the PVDF membranes were incubated overnight with primary antibodies. The following day, the membranes were washed and incubated for 2 h with alkaline phosphatase-conjugated secondary antibodies (DAKO, Glostrup, Denmark) then washed and visualized by 5'-bromo-chloro-indolyl phosphate (Sigma-Aldrich) and nitro blue tetrazolium (Sigma-Aldrich). Medium from keratinocytes was extracted with MacroPrep CM Support beads (Bio-Rad) overnight at 4° C. The beads were subsequently washed and bound material was eluted with 30% acetic acid. The eluted material was dialyzed in 5% acetic acid and lyophilized before resuspension in sample buffer for acid urea (AU)-PAGE. AU-PAGE and immunoblotting were performed according to instructions given by the manufacturer (Hoeffer, San Francisco, Calif.). After transfer of proteins from the 12.5% acrylamide gels, the PVDF membranes were fixed for 30 min in TBS with 0.05% glutaraldehyde (Sigma-Aldrich), followed by blocking with Superblock Blocking Buffer (Pierce, Rockford, Ill.). For visualization of hBD-3, the PVDF membranes were incubated overnight with primary antibodies. The following day, the membranes were incubated for 2 h with HRP-conjugated secondary antibodies, (Pierce) and visualized by Immun-Star HRP luminal/enhancer and Immun-Star peroxide buffer (Bio-Rad). Cells were grown in serum-free keratinocyte medium from Clonetics (KGM-2 Bullet Kit; San Diego, Calif.) with bovine pituitary extract, transferrin, human epidermal growth factor (EGF), hydrocortisone, gentamicin, amphotericin B, and epinephrine, but without insulin. Cells were stimulated beginning 24 h after complete confluence was reached. Cells and medium was harvested 0, 3, 6, 12, 24, and 48 h after stimulation with IGF-I (100 ng/mL), TGF-α (50 ng/mL), TGF-β1 (10 ng/mL), hFGF (100 ng/mL), IGF-I/TGF-α, IL-1β (20 ng/mL), IL-6 (100 ng/mL), EGF (100 ng/mL), and INF-α (20 ng/mL). […] The RNA was transferred to a Hybond-N membrane (Amersham Pharmacia Biotech, Little Chalfont, U.K.) by capillary blotting and was fixed by UV irradiation. The filters were pre-hybridized for a minimum of 30 min at 42° C. in 10 mL of ULTRAhyb (Ambion, Austin, Tex.) and hybridized overnight at 42° C. after the addition of an additional 5 mL of ULTRAhyb containing the P-labeled probe. The membranes were washed twice for 5 min each time at 42° C. in 2×SSC (1×SSC=150 mM NaCl/15 mM sodium citrate, pH 7.0)/0.1% SDS, followed by twice for 15 min each time in 2×SSC/0.1% SDS, once for 15 min in 0.2×SSC/0.1% SDS, and once for 15 min in 0.1×SSC/0.1% SDS at 42° C. The blot was developed and quantified by a phosphorimager (Fuji Imager Analyzer BAS-2500, Image Reader version 1.4E, image Gauge version 3.01 software; Fuji, Stockholm, Sweden). The sizes of the mRNAs were determined by reference to 18S and 285 rRNA, which were visualized by ethidium bromide staining. The membranes were stripped by boiling in 0.1% SDS before re-hybridization. The probes used for hybridization were cDNA fragments radiolabeled with [α-P]dCTP using the Random Primers DNA Labeling System (Life Technologies). The probes NGAL, hCAP-18, hBD-2, and β-actin have previously been described. The probes for SLPI, hBD-1, and hBD-3 were amplified from cDNA from keratinocytes with the following primers: SLPI, [NT] II) NO: 1), and [NT] ID NO: 2); hBD-1, [NT] ID NO: 3), and [NT] ID NO: 4); and hBD-3, [NT] ID NO: 5), and [NT] ID NO: 6). The probe for hBD-4 was amplified from genomic DNA using the following primers: [NT] ID NO: 7) and [NT] II) NO: 8). PCR-amplified probes were cloned into plasmids and verified by DNA sequencing. […]

[2] = test system: chronic wounds; parameters: key: N.S. = not statistically significant; settings: cited from earlier work
[3] = test system: CBA Epidermal Culture; assay: Tissue repair in human epidermal cell culture with 4-mm defect (bFGF, M-007); assay type: cell-based
Procedure: A 4-mm mucosal defect was surgically made in the CBA Epidermal Culture. The formulation Sol. of bFGF, M-007, and control saline was injected along the edge of the wound defect immediately after scratch. The control group received only phosphate-buffered saline vehicle.
By day 5, FGFR1-positive cells were seen below the stratum corneum, even in the control group. […] Each sample was repeated in duplicate, thus FIG. 2 represents the average of each sample. P1-2 are control plates 1 and 2 and are epidermal cell culture with no external treatment. P3-4 is epidermal cell culture treated with phosphate buffered saline only. P5-6 is epidermal cell culture treated with bFGF. P7-8 is epidermal cell culture treated with bFGF sol. No. 00376. […] No. 00321A. […] No. 0032113. […] No. 00321A @ 70/30 ratio. […] No. 00321A @ 30/70 ratio. […] No. 00321A 70/30 ratio. P21-22 is epidermal cell culture treated with bFGF sol. […] No. 00321A @50/50 ratio. P23-24 is epidermal cell culture treated with bFGF sol. […] No. 00321A @30/70 ratio.

[4] = test system: skin wounds; assay: Screen of tigerinin-based peptides for wound-healing ability
Description: Two antimicrobial peptides (tigerinin-RC1: […] (SEQ ID NO: 9); tigerinin-RC2: […] (SEQ ID NO: 10)) have been previously identified from the skin secretions of Fejervarya cancrivora. […] Here, several peptides based on tigerinins are synthesized to screen candidates containing potential wound-healing ability.

IGF-I: insulin growth factor-1
expression of hBD-1 relative to the housekeeping gene β-actin ([1]; 24 h): 3 fold
expression of hBD-1 relative to the housekeeping gene β-actin ([1]; 48 h): 7 fold
expression of the antimicrobial peptides/polypeptides hCAP-18, hBD-3, NGAL, and SLPI [1]: induce or enhance
hCAP-18 at the protein level (ELISA) and the mRNA level ([1]; keratinocytes): up-regulated
mRNA for hBD-3 (induction) ([1]; keratinocytes): did not induce

GM-CSF: granulocyte-macrophage colony-stimulating factor
Results ([2]; venous + arterial (25), 400 μg injected once around the wound, da Costa et al.): N.S.

bFGF: basic fibroblast growth factor
collagen maturation (histologic analysis) [3]: relatively faster
granular tissue formation and re-epithelialization [3]: significantly accelerated
number and intensity of FGFR1-positive cells versus control group ([3]; day 5): greater than in the control group
Results ([2]; diabetic (17), 0.25 to 0.75 μg/cm^2 daily, Richard et al.): N.S.
Results ([2]; pressure (50), 1, 5, and 10 μg/cm^2, Robson et al.): N.S.

EGF: epidermal growth factor (NSDSECPLSHDGYCLHDGVCMYIEALDKYACNCVVGYIGERCQYRDLKWWELR; UniProt P01133 971-1023, looked up)
Results ([2]; venous (44), 10 μg/mL twice per day, Falanga et al.): N.S.

c [WCKPKPKPRCH-NH2] (SEQ ID NO: 11) (not fully specified (bridges); also: cyclic, ring type and places not given here; listed as Fejervarya cancrivora) [M-007 fulvate isolated peptide, tigerinin-based synthesized small peptide]
wound-healing ability [4]: potent healer of skin wounds

HGH: human growth hormone
Results ([2]; venous (37), 1 IU/cm^2 per week, Rasmussen et al.): N.S.

IL-1B: interleukin-1B
Results ([2]; pressure (25), 0.01, 0.1, and 1 μg/cm^2 daily, Robson et al.): N.S.

TGF-α: a transforming growth factor
expression of the antimicrobial peptides/polypeptides hCAP-18, hBD-3, NGAL, and SLPI [1]: induce or enhance
mRNA for hBD-3 (induction) ([1]; keratinocytes): significantly induced
hBD-3 in the medium by immunoblot ([1]; medium from stimulated keratinocytes, not in unstimulated cells): detected
